EC50, CC50 and selectivity ratio data for nine compounds are collected here from ChEMBL document CHEMBL1909571, “Design, synthesis, and biological activity of a novel series of 2,5-disubstituted furans/pyrroles as HIV-1 fusion inhibitors targeting gp41” (Bioorg Med Chem Lett, 2011).

SMILES strings stand for the structures. pEC50: −log10 of the molar value.

The subject of series [1] is Human immunodeficiency virus. The series is described as follows: Antiviral activity against HIV 3B infected in MT2 cells assessed as inhibition of viral replication measuring p24 level by ELISA. It counts as functional, organism-based. To be noted: Human immunodeficiency virus 1, 3B. For orientation: In an ELISA, binding on a coated surface is turned into a signal by an enzyme label.

Series [2] is described as follows: Cytotoxicity against human MT2 cells by XTT assay. It counts as cell-based.
A short description of series [3]: Inhibition of GP41 six-helix bundle formation in HIV 3B after 30 mins by FN-PAGE analysis. Also noted: species or system Human immunodeficiency virus 1.
The nature of series [4]: Inhibition of HIV1 3B gp41-mediated fusion of infected human H9 cells to uninfected human MT2 cells by fluorescence assay. It counts as cell-based. The conditions noted are these: Human immunodeficiency virus 1, 3B.
Series [5] can be described thus: Selectivity index, ratio of CC50 for human MT2 cells to EC50 for HIV 3B infected in MT2 cells. It is filed as toxicity, cell-based. To be noted: read-out: Ratio CC50/EC50.

Regarding `O=C(O)c1cc(-c2ccc(/C=C3\CC(=O)N(CCc4ccccc4)C3=O)o2)ccc1Cl`, the pEC50 – broadly, −log10 of the EC50, conventionally taken in molar units – in series [1] was 5.16; in series [3], 4.81; in series [4] it was 4.36. Besides, in series [2], the half-maximal cytotoxic concentration (CC50) (in general, the concentration that lowers cell viability or growth by half) stood at 118 µM. The selectivity ratio in series [5] came to 17.2.
As to `O=C(O)c1cc(-c2ccc(/C=c3\sc4nc(=O)c(-c5ccccc5)nn4c3=O)o2)ccc1Cl`, the negative-log EC50 (pEC50) was 4.77 in series [1], 4.89 in series [3] and 4.34 in series [4]. This compound registered a cytotoxic concentration (CC50) in series [2] above 320 µM. In addition, the selectivity ratio in series [5] is above 19.1.
Take `O=C(O)c1cc(-c2ccc(/C=C3\SC(=S)N(CCc4ccccc4)C3=O)o2)ccc1Cl`: the negative logarithm of the EC50 (pEC50) is 7.30 in series [1], 5.90 in series [3] and 6.12 in series [4]. This compound also registered a CC50 in series [2] of 20.3 µM. Moreover, in series [5], the selectivity ratio was 406.
The matching figures for `O=C(O)c1cc(-c2ccc(/C=C3\SC(=O)N(CCc4ccccc4)C3=O)o2)ccc1Cl`: 4.82, 4.53, 4.57, 68.2 µM and 4.5.
As for `O=C(O)c1cc(-c2ccc(/C=C3\CC(=O)N(CCc4ccccc4)C3=O)[nH]2)ccc1Cl`, the values for the pEC50 in series [1], in series [3] and in series [4] were below 4.00, 5.26 and below 4.00, respectively. The midpoint of cytotoxicity in series [2], the CC50, lay at 74.1 µM.
Consider `O=C(O)c1cc(-c2ccc(/C=C3\NC(=O)N(CCc4ccccc4)C3=O)o2)ccc1Cl`, for which the values for the pEC50 in series [1], in series [3] and in series [4] were 4.27, 4.72 and below 4.00, respectively. Besides, half-maximal cytotoxicity in series [2] (CC50) was put at 78.5 µM. In addition, the selectivity ratio in series [5] was found to be 1.5.
For the compound `O=C(O)c1cccc(-c2ccc(/C=C3\NC(=O)N(CCc4ccccc4)C3=O)[nH]2)c1`, the figures for the pEC50 in series [1], in series [3] and in series [4] were below 4.00, 5.52 and 4.45, respectively. This compound also had a CC50 in series [2] of 75.2 µM.
On to `O=C(O)c1cc(-c2ccc(/C=C3\OC(=S)N(CCc4ccccc4)C3=O)o2)ccc1Cl`, for which the pEC50 in series [1] was 4.51; in series [3], 4.56; in series [4], 4.30. This compound had a CC50 in series [2] of 282 µM. The selectivity ratio in series [5] worked out at 9.1.
As to `O=C(O)c1cccc(-c2ccc(/C=C3\CC(=O)N(CCc4ccccc4)C3=O)[nH]2)c1`, the negative logarithm of the EC50 (pEC50) in series [1], in series [3] and in series [4] was below 4.00 each time. Half-maximal cytotoxicity in series [2] (CC50) was put at 127 µM.
